The experiment has as its target T1, ANP-receptor (Bos taurus, UniProt P10730).
T1 construct: endogenous in cells; host or cells: cultured BASM cells
T1 sequence (P10730 42-537): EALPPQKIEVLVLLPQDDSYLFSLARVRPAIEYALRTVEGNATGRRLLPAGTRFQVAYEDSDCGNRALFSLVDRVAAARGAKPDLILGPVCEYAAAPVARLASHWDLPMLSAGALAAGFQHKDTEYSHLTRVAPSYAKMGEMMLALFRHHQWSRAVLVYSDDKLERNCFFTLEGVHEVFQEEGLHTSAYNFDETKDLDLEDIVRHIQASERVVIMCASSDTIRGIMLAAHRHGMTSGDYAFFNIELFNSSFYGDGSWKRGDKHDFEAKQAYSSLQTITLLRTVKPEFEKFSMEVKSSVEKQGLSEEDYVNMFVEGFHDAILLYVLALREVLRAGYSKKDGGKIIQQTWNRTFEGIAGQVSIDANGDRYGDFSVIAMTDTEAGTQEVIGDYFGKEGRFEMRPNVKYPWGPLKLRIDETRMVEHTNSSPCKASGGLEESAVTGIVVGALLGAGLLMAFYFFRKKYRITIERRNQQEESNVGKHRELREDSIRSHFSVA
The experiment is described as follows: competitive displacement receptor binding assay with (¹²⁵I)-rANP(126-150) on cultured cells. More on the design: species or system bovine. To be noted: concentration of unlabeled peptide displacing 50% of maximal binding of 0.5 nM (¹²⁵I)-rANP(126-150); BASM cells; read-out: Ki(app). The text has this: Analogous "competitive displacement" receptor binding assays are considered commonplace in the art for examining specific ligand-receptor interactions.
Assuming these ANP analogs act at one or more ANP receptor sites, then increased receptor affinity should reflect increased biological potency.

Where only a bound is given, the exact number is not on record here.

Turning to `CC[C@H](C)[C@H](NC(=O)[C@H](Cc1ccc(O)cc1)NC(=O)[C@@H](NC(=O)[C@H](CCCNC(=N)N)NC(=O)[C@@H](N)CC(=O)O)C(C)C)C(=O)N[C@@H](Cc1cnc[nH]1)C(=O)N1CCC[C@H]1C(=O)N[C@@H](Cc1ccccc1)C(=O)O` [angiotensin II], the Ki was above 500 nM. The value for parathyroid hormone was above 500 nM.
